Values joined by “and” are separate entries in the source; they are usually repeats but may differ in a detail not shown here. Identical values can stand only once.
Tested on: Patients with MDD
Type: in vivo
Conditions: for Ham-D change: baseline to end value, oral tablets, no visit qualifier given; for Ham-D change / Ham-D change (by penultimate visit): individual MDD patient; for Ham-D change (by penultimate visit): baseline to value by penultimate visit; for Reduction in patient depression, measured using the Hamilton-D rating scale: the five patients who completed the trial protocol (three tramadol, two amitriptyline)
Description: A Single Centre, Open Labelled, Comparative, Parallel Pilot Study to Evaluate the Antidepressant Activity of Tramadol in the Treatment of Major Depressive Disorder (MDD).
The investigational drug was administered in tablet form orally, with an initial dose of 200 mg daily for 2 weeks and then maintenance at 200-400 mg daily for a further 14 weeks.
Patients with MDD aged between 18 to 65 years old.
To evaluate the antidepressant activity of tramadol by comparing the change in Ham-D scores of patients with MDD when treated with tramadol as compared with amitriptyline.
Remission is defined as ≦7 on the 17 item Ham-D scale upon completion of week 8 of trial. Response is defined as ≧50% decrease from baseline depression on 17 item Ham-D score upon completion of week 8 of trial. Partial response is defined as <50% but ≧25% decrease from base line depression on 17 item Ham-D Scale. Recovery is defined as at least 8 weeks free from depression, as diagnosed according to DSM-IV-TR criteria.
This was a comparative, single centre, parallel, open-label randomized study in which half of the study population will receive tramadol and the other half will receive amitriptyline.
The primary endpoint is the treatment response of each study subject, as measured on the Ham-D 17-item scale (Hamilton Mass.). Study entry requires a Ham-D score of ≧15. To achieve remission, a cut-off score of ≦7 will be applied. Response will be defined as a ≧50% drop in score and a partial response will be defined as <50% but ≧25% drop in score. Recovery will be defined as at least 8 weeks free of major depression, as diagnosed according to DSM-IV-TR criteria.
In an open-label study comparing the treatment of Major Depressive Disorder with tramadol and amitriptyline, sixteen patients have been enrolled and five have completed the trial protocol. Of those five, three had received tramadol and two had received amitriptyline. […] A further eight patients are displaying solid therapeutic responses and there have been three drop-outs. Information on therapeutic responses of the first 12 patients is summarised below.

SMILES	Ham-D change (17-item Ham-D score)	Ham-D change (by penultimate visit) (17-item Ham-D score)	Ham-D change (by visit 4 of 7) (17-item Ham-D score, baseline to value by visit 4 of 7, individual MDD patient)	Reduction in patient depression, measured using the Hamilton-D rating scale	Drop-out because of AE (human, in vivo)
COc1cccc(C2(O)CCCCC2CN(C)C)c1 (centres unmarked) [Tramadol]	23 to 0	26 to 0 (by penultimate and 26 to 4 (by penultimate (2×)	18 to 16 (by visit 4 of 7)	clinically significant reduction in patient depression	
CN(C)CCC=C1c2ccccc2CCc2ccccc21 [Amitriptyline, amitriptyline]	22 to 0	19 to 4 (by penultimate		clinically significant reduction in patient depression	Dropped out after Visit 2

Source: patent publication US20090005443A1, “Treatment of Depression” (priority 2007, published 2009)
